The results in this text go back to PubChem BioAssay (NCI).

Where “and” joins values, the source holds several entries; their conditions need not be identical. Equal entries are not always repeated.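 Grown in 96-well plates, cells were treated for 48 hours with each compound at five concentrations. Insufficient inhibition: endpoint recorded as highest concentration tested. Abbreviation: GI50, concentration required for 50% inhibition of growth. The concentration for full growth arrest is given as TGI.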 *1 amine or outer side, *2 acyl side, *3 side chain or, on linkers, in order; H or OH if unused. Where a SMILES comes first, the peptide text is derived from it. Bridges are numbered along the chain shown (N, C = ends). [ ]: non-standard residue; d: D form. The star is where a group is joined. Phe(3,5-F2) = N[C@@H](Cc1cc(F)cc(F)c1)C(=O)O; Pro(4R-Me) = C[C@H]1CN[C@H](C(=O)O)C1; aThr = C[C@H](O)[C@H](N)C(=O)O; Pip = O=C(O)[C@@H]1CCCCN1; X10 = Fc1cc(C2CC2)ccc1N*; CO = O=C([*:1])[*:2] Where only a bound is given, the exact number is not on record here.

Test systems include MDA-MB-231 breast; BT-549 breast; SK-MEL-28 melanoma; ACHN renal; HOP-62 NSCLC; MOLT-4 leukemia; NCI-H460 lung; SF-295 CNS.
Assay in all cases: NCI tumour cell line growth inhibition, 48 h

Take `CC1CCc2nc[nH]c(=O)c21` (stereo unspecified): the GI50 in the test with MDA-MB-231 breast, in the test with BT-549 breast, in the test with SK-MEL-28 melanoma, in the test with ACHN renal, in the test with HOP-62 NSCLC and with MOLT-4 leukemia was more than 100 µM each time. For the same molecule, the GI50 in the test on NCI-H460 lung is more than 100 µM. The TGI in the test with MDA-MB-231 breast, with BT-549 breast, in the test on SK-MEL-28 melanoma, with ACHN renal, in the test with HOP-62 NSCLC and in the test on MOLT-4 leukemia was more than 100 µM throughout. In the test with NCI-H460 lung, this molecule had a TGI of more than 100 µM.

As for `CCN1CCN(Cc2ccc(NC(=O)c3cccc(C#Cc4cccc5[nH]nc(N)c45)c3)cc2C(F)(F)F)CC1`, the GI50 in the test on MDA-MB-231 breast was 0.12 µM; with BT-549 breast, 1.1 µM; with SK-MEL-28 melanoma, 0.568 µM; with ACHN renal, 0.18 µM; with MOLT-4 leukemia, 0.227 µM; in the test with NCI-H460 lung it was 0.39 µM. For the same molecule, the TGI was 0.573 µM in the test with MDA-MB-231 breast; 2.41 µM in the test with BT-549 breast; 1.78 µM in the test on SK-MEL-28 melanoma; 0.933 µM with ACHN renal; 1.16 µM with MOLT-4 leukemia; 1.66 µM with NCI-H460 lung.

Consider `O=[N+]([O-])c1ccc2c(c1)/C(=N/N=C1c3ccccc3Cc3ccccc31)c1cc([N+](=O)[O-])cc([N+](=O)[O-])c1-2`, for which the TGI in the test with MDA-MB-231 breast was 6.42 µM; with BT-549 breast, 2.87 µM; in the test on SF-295 CNS, 3.7 µM; with SK-MEL-28 melanoma it was 9.05 µM; in the test with ACHN renal, 8.79 µM; in the test with HOP-62 NSCLC, 7.01 µM. Moreover, the TGI in the test on MOLT-4 leukemia came to 5.99 µM; in the test with NCI-H460 lung, 14.1 µM.

With `CCOC1Oc2ccccc2C(=O)/C1=C/Nc1ccc(C(C)=O)cc1` (stereo unspecified), the GI50 is 20 µM with MDA-MB-231 breast; 29 µM with BT-549 breast; 23.9 µM in the test with SF-295 CNS; 44.8 µM in the test on SK-MEL-28 melanoma; 18.6 µM with ACHN renal; 18.5 µM with HOP-62 NSCLC. Besides, the GI50 in the test with MOLT-4 leukemia is 15.8 µM; in the test on NCI-H460 lung, 32.8 µM. The TGI was 47.8 µM with MDA-MB-231 breast; 92.3 µM in the test on BT-549 breast; 62.3 µM in the test with SF-295 CNS; more than 100 µM with SK-MEL-28 melanoma; 44 µM in the test with ACHN renal; 40 µM with HOP-62 NSCLC. Further, the TGI in the test with MOLT-4 leukemia was 53.3 µM; with NCI-H460 lung, more than 100 µM.

With `COC1/C=C/OC2(C)Oc3c(C)c(O)c4c(O)c(c(/C=N/Nc5ccc([N+](=O)[O-])cc5[N+](=O)[O-])c(O)c4c3C2=O)NC(=O)C(C)=C/C=C/C(C)C(O)C(C)C(O)C(C)C(OC(C)=O)C1C` (stereo unspecified), the GI50 is 1.32 µM with MDA-MB-231 breast; 5.64 µM with SF-295 CNS; 1.45 µM in the test with SK-MEL-28 melanoma; 3.56 µM in the test with ACHN renal; 2.47 µM in the test with HOP-62 NSCLC; 5.22 µM in the test on NCI-H460 lung. For the same molecule, the TGI in the test on MDA-MB-231 breast was 4.01 µM; in the test on SF-295 CNS, 20.1 µM; in the test on SK-MEL-28 melanoma, 5.23 µM; in the test on ACHN renal, 11.4 µM; with HOP-62 NSCLC it was 25.5 µM; with NCI-H460 lung, 14.7 µM.

Consider `O=C(Nc1ccc(F)cc1)Nc1ccc(Cl)c([N+](=O)[O-])c1`, for which the GI50 with MDA-MB-231 breast was 2.54 µM; in the test with BT-549 breast, 2.9 µM; with SF-295 CNS, 2.27 µM; in the test with SK-MEL-28 melanoma, 3.77 µM; in the test on ACHN renal, 2.96 µM; in the test on HOP-62 NSCLC, 3.78 µM. The GI50 with MOLT-4 leukemia is 3.13 µM; in the test on NCI-H460 lung, 2.72 µM. Further, the TGI in the test with MDA-MB-231 breast stood at 6.46 µM; with BT-549 breast, 10.8 µM; in the test with SF-295 CNS, 7.93 µM; in the test on SK-MEL-28 melanoma, 14.2 µM; in the test on ACHN renal it was 11 µM; with HOP-62 NSCLC, 15.9 µM. Also, the figures for the TGI in the test with MOLT-4 leukemia and with NCI-H460 lung were 92.9 µM and 11.5 µM, respectively.

For `C[C@@H]1C[C@H]2C(=O)O[C@@H](C)[C@H](NC(=O)[C@H](Cc3cc(F)cc(F)c3)NC(=O)Nc3ccc(C4CC4)cc3F)C(=O)N3CCC[C@H]3C(=O)N3CCCC[C@H]3C(=O)N[C@@H](C)C(=O)N2C1` ({X10-CO}-[Phe(3,5-F2)][aThr]P[Pip]A[Pro(4R-Me)]; ester 2-C), the GI50 is 0.0402 µM in the test on MDA-MB-231 breast; 0.0588 µM in the test on BT-549 breast; 0.0438 µM with SF-295 CNS; 0.0781 µM in the test on SK-MEL-28 melanoma; 0.0984 µM in the test with ACHN renal; 0.0542 µM with HOP-62 NSCLC. Besides, the GI50 was 0.205 µM in the test with MOLT-4 leukemia and 0.0391 µM with NCI-H460 lung. In addition, the TGI in the test with MDA-MB-231 breast is 1.3 µM; with BT-549 breast, more than 22.4 µM; with SF-295 CNS, 1.57 µM; with SK-MEL-28 melanoma, 4.99 µM; with ACHN renal, 8.12 µM; in the test on HOP-62 NSCLC, more than 48.2 µM. Moreover, the TGI in the test with MOLT-4 leukemia is more than 42.7 µM; with NCI-H460 lung it was 4.55 µM.

On to `Fc1[nH]nc2ccc([C@@H]3Nc4ccc5[nH]ncc5c4[C@H]4C5CCC(C5)[C@@H]34)cc12` (stereo partly specified), for which the GI50 was 1.97 µM with MDA-MB-231 breast; 1.77 µM in the test with BT-549 breast; 0.414 µM in the test on SF-295 CNS; 1.54 µM with SK-MEL-28 melanoma; 1.52 µM with ACHN renal; 0.747 µM with HOP-62 NSCLC. Besides, the GI50 in the test on MOLT-4 leukemia is 0.651 µM; in the test on NCI-H460 lung, 0.804 µM. Moreover, the TGI in the test on MDA-MB-231 breast stood at 17.5 µM; with BT-549 breast, 17.8 µM; in the test with SF-295 CNS it was 10.6 µM; in the test with SK-MEL-28 melanoma, 16.2 µM; with ACHN renal, 13.6 µM; in the test with HOP-62 NSCLC it was 13.8 µM. Also, the TGI in the test on MOLT-4 leukemia was found to be 12.7 µM; with NCI-H460 lung it was 7.26 µM.

Consider `C=CCO[C@H]1CO[C@H]2[C@@H]1OC[C@@H]2Oc1ccc(Nc2ccnc(Nc3ccc(O[C@H]4CO[C@H]5[C@@H]4OC[C@@H]5OCC=C)c(Cl)c3)n2)cc1Cl`, for which the GI50 in the test on MDA-MB-231 breast is 1.69 µM; in the test on BT-549 breast, 1.6 µM; in the test on SF-295 CNS it was 1.85 µM; in the test on SK-MEL-28 melanoma, 1.73 µM; with ACHN renal, 1.77 µM; in the test on HOP-62 NSCLC it was 1.93 µM. Also, the GI50 with NCI-H460 lung was 1.76 µM. Further, the TGI in the test on MDA-MB-231 breast turned out to be 3.23 µM; in the test on BT-549 breast, 3.11 µM; with SF-295 CNS it was 3.49 µM; in the test with SK-MEL-28 melanoma it was 3.16 µM; in the test on ACHN renal it was 3.31 µM; in the test with HOP-62 NSCLC, 4.01 µM. The TGI in the test with NCI-H460 lung was 3.35 µM.

Consider `C[N+](C)(C)CC(=O)N/N=C(/CC(=O)CC(C1=C(O)c2ccccc2OC1)c1ccccc1)C(=O)Nc1cccc(Cl)c1` (stereo unspecified), for which the TGI in the test with MDA-MB-231 breast, with BT-549 breast, in the test on SF-295 CNS, in the test on SK-MEL-28 melanoma, with ACHN renal and in the test with HOP-62 NSCLC was more than 100 µM in each case. In the test on MOLT-4 leukemia, this molecule displayed a TGI of more than 100 µM.

For the molecule `CCN(CC)N=Nc1c(C(N)=O)n[nH]c1C`, the TGI in the test with MDA-MB-231 breast, in the test with BT-549 breast, with SF-295 CNS, in the test on SK-MEL-28 melanoma, in the test with ACHN renal and in the test on HOP-62 NSCLC was more than 100 µM in each case. Also, the TGI in the test on NCI-H460 lung is more than 100 µM.

Take `COc1ccc(CC2c3cc4c(cc3CCN2C)OCO4)c(C=O)c1OC` (stereo unspecified): the TGI in the test on MDA-MB-231 breast, in the test on BT-549 breast, in the test with SF-295 CNS, with SK-MEL-28 melanoma, with ACHN renal and with MOLT-4 leukemia was more than 100 µM throughout. The TGI in the test on NCI-H460 lung was more than 100 µM.

With `Cc1ccnc2c1ccc1c(C)ccnc12`, the GI50 was 0.673 µM in the test on MDA-MB-231 breast; 0.521 µM in the test on BT-549 breast; 0.371 µM in the test on SF-295 CNS; 0.491 µM with SK-MEL-28 melanoma; 0.357 µM in the test with ACHN renal; 0.508 µM in the test on HOP-62 NSCLC. For the same molecule, the GI50 in the test with NCI-H460 lung is 0.339 µM. Further, the TGI in the test with MDA-MB-231 breast was 21.3 µM; in the test on BT-549 breast, 14.3 µM; in the test on SF-295 CNS, 11.7 µM; with SK-MEL-28 melanoma, 14.2 µM; with ACHN renal, 10.5 µM; in the test on HOP-62 NSCLC, 12.6 µM. The same molecule had a TGI in the test on NCI-H460 lung of 11.3 µM.

In the case of `CC(C)=CCC\C(C)=C/C=C/C(C)=C\C=C\C(C)=C/C=C/C=C(C)\C=C\C=C(C)/C=C/C=C(/C)CCC=C(C)C`, the TGI in the test on MDA-MB-231 breast, with BT-549 breast, in the test on SF-295 CNS, in the test on SK-MEL-28 melanoma, in the test with ACHN renal and in the test on HOP-62 NSCLC was more than 100 µM each time. Besides, the TGI in the test with MOLT-4 leukemia was more than 100 µM.

As to `Cc1ccc(Cl)c2c(N=Nc3ccccc3[N+](=O)[O-])c(O)[nH]c12`, the TGI in the test with MDA-MB-231 breast, in the test with SF-295 CNS, in the test with SK-MEL-28 melanoma, with ACHN renal, in the test on HOP-62 NSCLC and in the test on MOLT-4 leukemia was more than 100 µM in each case. The molecule further had a TGI in the test on NCI-H460 lung of more than 100 µM.

Consider `C[C@@H](Oc1cc(-n2cnc3ccc(CN4CCN(C)CC4)cc32)sc1C(N)=O)c1ccccc1C(F)(F)F`, for which the TGI was 2.65 µM and > 2.79 µM with MDA-MB-231 breast; 15.2 µM and > 10 µM in the test on BT-549 breast; more than 10 µM with SF-295 CNS; 15.8 µM and > 10 µM in the test on ACHN renal; 12.7 µM and > 10 µM in the test with HOP-62 NSCLC; 4.71 µM and 2.76 µM in the test on MOLT-4 leukemia. The TGI in the test with NCI-H460 lung was 12.5 µM and > 10 µM. The GI50 in the test on BT-549 breast was 0.0746 µM and 0.139 µM; with SF-295 CNS, 0.0486 µM; in the test on ACHN renal, 0.442 µM and 0.156 µM; in the test on HOP-62 NSCLC, 0.0118 µM and 0.0199 µM; in the test with MOLT-4 leukemia, < 0.0107 µM and 0.0112 µM; in the test on NCI-H460 lung it was < 0.0157 µM and 0.0224 µM.
